Measured values as given in patent US20030044413A1, “Methods of limiting apoptosis of cells” (Regents of the University of Minnesota, priority 1998, published 2003).

Columns and labels:
[1] = test system: hepatocytes; assay: TUNEL assay in liver of rats fed bile acids; format: in vivo, rat; details: 10 days
Source text: Animals and diets. Male 160-175 gram (g) Sprague-Dawley rats (Sprague-Dawley, Indianapolis, Ind.) were maintained on a 12-hour (h) light-dark cycle and fed standard laboratory chow ad libitum for 3 days. […] On day 10, the animals were sacrificed by exsanguination under ether anesthesia between 9 a.m. and 11 a.m. The livers were removed, rinsed in normal saline, and flash-frozen in liquid nitrogen. Liver tissue samples were embedded in OCT, and 5 μm-thick cryostat sections were cut and mounted on slides. […] All animals received human care in compliance with the Guide for the Care and use of Laboratory Animals, prepared by the National Academy of Sciences (NIH Publication No. 86-23, revised 1985). Terminal transferase-mediated dUTP-digoxigenin nick end labeling (TUNEL) assay. Digoxigenin-nucleotide residues were added to 3′-OH ends of double or single-stranded DNA by terminal deoxynucleotidyl transferase. Reactions were performed according to the manufacturer's recommendations (Oncor, Inc., Gaithersburg, Md.), and the specimens were then coversliped with Permount medium (Fischer Scientific, Inc., Itasca, Ill.) prior to analysis by phase-contrast microscopy using a Nikon microscope (Nikon, Inc., Melville, N.Y.). Photographs were taken using Kodak Ektar-1000 film (Eastman Kodak Co., Rochester, N.Y.).

[2] = test system: HuH-7 cells; assay: Okadaic acid-induced apoptosis, HuH-7 cells; format: cell-based, human; details: 48 h
Method: Incubation of cells with ethanol, TGF-β1, anti-Fas antibody or okadaic acid. Freshly isolated rat hepatocytes were cultured for 3 h as described above and then incubated with William's E medium supplemented with either 0.5% ethanol, 50 μM UDCA, ethanol plus UDCA, or no addition (control) for 2 h and 4 h. HuH-7 cells were incubated with Dulbecco's medium supplemented with either 1 nM TGF-β1 (R & D Systems, Minneapolis, Minn.), 100 μM UDCA, TGF-β1+UDCA, or no addition (control) for 24 h, 48 h, and 72 h. Hep G2 cells were incubated with Dulbecco's medium supplemented with either 0.5 μg/ml of anti-Fas antibody CH-11 (Upstate Biotechnology, Inc., Lake Placid, N.Y.), 100 μM UDCA, CH-11+UDCA, or no addition for 48 h. Both HuH-7 cells and human osteogenic sarcoma Saos-2 cells were cultured in Dulbecco's medium supplemented with either 50 nM okadaic acid (Boehringer Mannheim Biochemicals, Inc, Indianapolis, Ind.), 100 μM UDCA, okadaic acid+UDCA, or no addition for 48 h. […]
Morphological evaluation of apoptosis. […] Fluorescence was visualized with a Zeiss standard fluorescence microscope (Carl Zeiss, Inc., Thornwood, N.Y.). […] Stained nuclei were scored by blind analysis and categorized according to the condensation and staining characteristics of chromatin. […] Three fields per dish of approximately 500 nuclei were counted; mean values are expressed as the percent of apoptotic nuclei.

[3] = test system: Saos-2 cells; assay: Okadaic acid-induced apoptosis, Saos-2 cells; format: cell-based, human
Method: Incubation of cells with ethanol, TGF-β1, anti-Fas antibody or okadaic acid. Freshly isolated rat hepatocytes were cultured for 3 h as described above and then incubated with William's E medium supplemented with either 0.5% ethanol, 50 μM UDCA, ethanol plus UDCA, or no addition (control) for 2 h and 4 h. HuH-7 cells were incubated with Dulbecco's medium supplemented with either 1 nM TGF-β1 (R & D Systems, Minneapolis, Minn.), 100 μM UDCA, TGF-β1+UDCA, or no addition (control) for 24 h, 48 h, and 72 h. Hep G2 cells were incubated with Dulbecco's medium supplemented with either 0.5 μg/ml of anti-Fas antibody CH-11 (Upstate Biotechnology, Inc., Lake Placid, N.Y.), 100 μM UDCA, CH-11+UDCA, or no addition for 48 h. Both HuH-7 cells and human osteogenic sarcoma Saos-2 cells were cultured in Dulbecco's medium supplemented with either 50 nM okadaic acid (Boehringer Mannheim Biochemicals, Inc, Indianapolis, Ind.), 100 μM UDCA, okadaic acid+UDCA, or no addition for 48 h. In all the combination groups, cells were pretreated with UDCA alone for 60 min prior to addition of ethanol, TGF-β1, anti-Fas antibody or okadaic acid.
Morphological evaluation of apoptosis. Morphology was performed as described previously (Oberhammer et al., Proc. Natl. Acad. Sci. USA 89, 5408-5412 (1992)). Briefly, after fixation (with 4% formaldehyde in PBS, pH 7.4, for 10 min at room temperature), the cells were incubated with Hoechst dye 33258 (Sigma Chemical Co.) at 5 μg/ml in PBS for 5 min, washed with PBS and mounted with PBS:glycerol (3:1, v/v). Fluorescence was visualized with a Zeiss standard fluorescence microscope (Carl Zeiss, Inc., Thornwood, N.Y.). Photographs were taken with Kodak Ektar-1000 film (Eastman Kodak Co.). Stained nuclei were scored by blind analysis and categorized according to the condensation and staining characteristics of chromatin. Normal nuclei were identified as noncondensed chromatin dispersed over the entire nucleus. […] Three fields per dish of approximately 500 nuclei were counted; mean values are expressed as the percent of apoptotic nuclei.

[4] = test system: HeLa cells; assay: Okadaic acid-induced apoptosis, HeLa cells; format: cell-based, human
Method: HuH-7 cells were treated with 1 nM TGF-β1, 100 μM of either hyodeoxycholic acid, taurocholic acid, tauroursodeoxycholic acid (Sigma Chemical Co.) or glycoursodeoxycholic acid (Steraloids Inc., Wilton, N.H.), or a combination of TGF-β1 plus the individual bile acids for 72 h. HeLa and Cos-7 cells were incubated with 50 nM okadaic acid, 100 μM of either tauroursodeoxycholic acid or glycoursodeoxycholic acid, or a combination of okadaic acid plus the individual bile acids for 24 h. In the combination groups, cells were pretreated with the bile acid alone for 60 min prior to incuation with TGF-β1 or okadaic acid. In all studies, the medium was gently removed at the indicated times and scored for nonviable cells. The attached cells were fixed for morphologic evaluation of apoptosis.
Morphological evaluation of apoptosis. Morphology was performed as described previously (Oberhammer et al., Proc. Natl. Acad. Sci. USA 89, 5408-5412 (1992)). […] Fluorescence was visualized with a Zeiss standard fluorescence microscope (Carl Zeiss, Inc., Thornwood, N.Y.). […] Stained nuclei were scored by blind analysis and categorized according to the condensation and staining characteristics of chromatin. […] Three fields per dish of approximately 500 nuclei were counted; mean values are expressed as the percent of apoptotic nuclei.

[5] = test system: Saos-2 cells; assay: FACS analysis of ΔΨm and ROS, Saos-2 cells; format: cell-based, human
Method: A ΔΨm and ROS measurement. ΔΨm and ROS production were measured by FACScan (Becton Dickinson) analysis. Freshly isolated rat hepatocytes were cultured for 3 h as described above and then incubated with William's E medium supplemented with either 100 μM DCA, 100 μM UDCA, equal molar amounts of both, or no bile acid (control), for 6 h. Rat hepatocytes were also cultured with either 1% ethanol, 100 μM UDCA, ethanol+UDCA, or no addition (control) for 4 h. HuH-7 cells, Hep G2 cells, and human osteogenic sarcoma Saos-2 cells were incubated with TGF-β1, anti-Fas antibody or okadaic acid, respectively, for 48 h under the same conditions as outlined above. For combination studies, cells were pretreated with UDCA or hyodeoxycholic acid for 60 min prior to addition of DCA, ethanol, TGF-β1, anti-Fas antibody or okadaic acid. Aliquots of 1.0×10^6 cells were incubated for 15 min at 37° C. with 50 nM 3,3′-dihexyloxacarbocyanine iodide [DiOC6(3)], 2 μM dihydroethidium (HE), or 5 μM 2′,7′-dichlorofluorescin diacetate (H2DCFDA; Molecular Probes, Inc. Eugene, Oreg.) and analyzed by cytofluorometry (Cathcart et al., Anal. Biochem., 134, 111-116 (1983); Zamzami et al., J. Exp. Med., 181, 1661-1672 (1 995); Carter et al., J. Leukocyte Biol., 55, 253-258 (1994)).
Rat primary hepatocytes were incubated with 100 μM DCA and 1% ETOH for 6 h and 4 h, respectively; HuH-7 cells with 1 nM TGF-β1 for 48 h; Hep G2 cells with 0.5 μg/ml anti-Fas antibody (CH-11) for 48 h, and Saos-2 cells with 50 nM okadaic acid (OA) for 48 h. In each combination group, cells were pretreated with 100 μM UDCA alone for 60 min prior to addition of the inducer. Aliquots of 1.0×10^6 cells were incubated for 15 min at 37° C. with 5 μM 2′,7′-dichlorofluorescin diacetate (H2DCFDA) and analyzed by cytofluorometry.

[6] = rats fed chow with 0.4% bile acid
[7] = inducer OA, Saos-2, inhibition by UDCA

SMILES	increase in TUNEL-positive liver cells from control values [1, 6] [fold]	reduction of the apoptotic response ([2]; 50 nM okadaic acid + 100 μM UDCA) [%]	reduction of the apoptotic response ([3]; 50 nM okadaic acid + 100 μM UDCA, 48 h) [%]	Inhibition % Apoptosis [3, 7] [%]	percent apoptosis ([4]; okadaic acid + UDCA) [%]	Peroxides Production (%) Inducer + UDCA ([5]; 50 nM OA 48 h, 100 μM UDCA pretreatment 60 min) [%]	inhibition at 100 µM ([5]; Homo sapiens, inducer OA, Saos-2, 100 μM UDCA, read-out: % Inhibition of peroxides production) [%]	Inhibition % Superoxide Anion [5, 7] [%]	Inhibition % _Ψm [5, 7] [%]	apoptosis induced ([2]; 50 nM okadaic acid) [%]	apoptosis induced ([3]; 50 nM okadaic acid, 48 h) [%]	percent apoptosis ([4]; okadaic acid alone) [%]	Peroxides Production (%) Inducer ([5]; 50 nM OA, 48 h, Saos-2) [%]	change in TUNEL-positive cells ([1]; FIG. 1 legend, 0.4% in chow)	liver cells with positive nuclear staining for fragmented DNA (TUNEL) [1, 6] [%]
C[C@H](CCC(=O)O)[C@H]1CC[C@H]2[C@@H]3[C@@H](O)C[C@@H]4C[C@H](O)CC[C@]4(C)[C@H]3CC[C@]12C [UDCA, ursodeoxycholic acid]	2	> 80	> 80	81.8 ± 2.3	20.5±7.1	5.4 ± 1.5	64.6 ± 7.5	77.6 ± 18.1	21.9 ± 10.7						
C=C1[C@@H](O)[C@@H]2O[C@]3(CC[C@H](/C=C/[C@@H](C)[C@@H]4CC(C)=C[C@@]5(O[C@H](C[C@@](C)(O)C(=O)O)CC[C@H]5O)O4)O3)CC[C@H]2O[C@@H]1[C@@H](O)C[C@H](C)[C@H]1O[C@@]2(CCCCO2)CC[C@H]1C [okadaic acid]										> 30	> 30	50.0±14.9	15.0 ± 1.1		
C[C@H](CCC(=O)O)[C@H]1CC[C@H]2[C@@H]3CC[C@@H]4C[C@H](O)CC[C@]4(C)[C@H]3C[C@H](O)[C@]12C [DCA, deoxycholic acid]	~40													significant increase	11
